For the data set, the system named is GENE-TOX genotoxicity assays, various organisms and cells. The data set can be described thus: GENE-TOX mutagenicity studies. Conditions: for call: Assay Type: In vivo carcinogenicity studies.
Where [1] appears, read: Species/Cell Type: Salmonella typhimurium (one or more of the five standard strains: TA98, TA100, TA1535, TA1537, and TA1538), Assay Type: Histidine reverse gene mutation, Ames assay, Assay Code: SAL-, Evaluation Type: Evaluation A (Pre-1980).
[2] abbreviates: Species/Cell Type: Salmonella typhimurium (one or more of the five standard strains: TA98, TA100, TA1535, TA1537, and TA1538), Assay Type: Histidine reverse gene mutation, Ames assay, Assay Code: SAL+*, Activation: With metabolic activation, Evaluation Type: Evaluation A (Pre-1980).
The mark [3] stands for this setting: Species/Cell Type: Mammalian polychromatic erythrocytes, Assay Type: Micronucleus test, chromosome aberrations, Assay Code: MNTT, Evaluation Type: Evaluation B (Post-1980).
[4] abbreviates: Species/Cell Type: Mammalian polychromatic erythrocytes, Assay Type: Micronucleus test, chromosome aberrations, Assay Code: MNT+, Evaluation Type: Evaluation B (Post-1980).
[5] abbreviates: Species/Cell Type: Bacillus subtilis (H17 vs M45), Assay Type: Rec-assay, spot test, DNA effects (bacterial DNA repair), Assay Code: REW+, Evaluation Type: Evaluation A (Pre-1980).
Where [6] appears, read: Species/Cell Type: Nonhuman, Assay Type: Sister-chromatid exchange (SCE) in vitro, Assay Code: SC2T, Evaluation Type: Evaluation B (Post-1980).
Where [7] appears, read: Species/Cell Type: Salmonella typhimurium (one or more of the five standard strains: TA98, TA100, TA1535, TA1537, and TA1538), Assay Type: Histidine reverse gene mutation, Ames assay, Assay Code: SAL+, Evaluation Type: Evaluation A (Pre-1980).
Setting [8] is: Species/Cell Type: Allium cepa, Assay Type: Chromosome aberrations, Assay Code: ALC+, Evaluation Type: Evaluation A (Pre-1980).
Where [9] appears, read: Species/Cell Type: Nonhuman, Assay Type: Sister-chromatid exchange (SCE) in vitro, Assay Code: SC2+, Evaluation Type: Evaluation B (Post-1980).
Where [10] appears, read: Species/Cell Type: Saccharomyces cerevisiae, Assay Type: Mitotic recombination or gene conversion, Assay Code: YEH-, Evaluation Type: Evaluation A (Pre-1980).
The mark [11] stands for this setting: Species/Cell Type: Salmonella typhimurium (one or more of the five standard strains: TA98, TA100, TA1535, TA1537, and TA1538), Assay Type: Histidine reverse gene mutation, Ames assay, Assay Code: SALT, Evaluation Type: Evaluation A (Pre-1980).
Setting [12] is: Species/Cell Type: Nonhuman, Assay Code: CCG+, Evaluation Type: Evaluation A (Pre-1980).
[13] abbreviates: Species/Cell Type: Nonhuman, Assay Type: Sister-chromatid exchange (SCE) in vitro, Assay Code: SC2+D, Dose Response: With dose response, Evaluation Type: Evaluation B (Post-1980).

Calls of active or inactive are those of the source. How the calls were made is not given here. Bridge positions count the residues as written; N and C are the ends. Square brackets hold non-standard residues; d marks the D form. Peptide text beside a SMILES is read from it. * marks the point of attachment. ξ: configuration not given here. Heptanoyl(5-Me) = CCC(C)CCCC(=O)*; ξThr(3R) = C[C@@H](O)C(N)C(=O)O; dDab = NCC[C@@H](N)C(=O)O; Dab = NCC[C@H](N)C(=O)O

Consider `C[C@@H]1C[C@@H]2OC(=O)[C@]3(C)[C@H]2[C@@H](OC3(C)O)[C@]2(C)C(=O)C=C[C@@H]12` (stereo partly specified), for which the mutagenic call under setting [1] was “inactive; negative”. Regarding `CC1CN(N=O)C(C)CN1N=O` (stereo unspecified), under setting [2], the mutagenic call was “active; positive”. With `S=C1NCCCN1`, the mutagenic call under setting [3] is “no conclusion”.

With `Clc1cccc(Cl)c1`, the mutagenic call under setting [4] was “active; positive”. Consider `Cc1cc(O)c2c(c1)C(=O)C13C(=C2O)C(=O)C2C(O)C1C1C(O)C3C(=O)C3=C(O)c4c(O)cc(C)cc4C(=O)C321` (stereo unspecified), for which, under setting [5], the mutagenic call was “active; positive”.

In the case of `CC(=O)[O-].CC(=O)[O-].CC(=O)[O-].[Cr+3]`, the mutagenic call runs as follows: (Species/Cell Type: Chinese hamster ovary (CHO) cells, Assay Type: Forward gene mutation at the HPRT locus, Assay Code: CHOT, Evaluation Type: Evaluation B (Post-1980)) “no conclusion”; under setting [6], “no conclusion”. For `CN(C)c1ccc(N(C)C)c2c1C(=O)c1c(O)ccc(O)c1C2=O`, under setting [7], the mutagenic call is “active; positive”.

On to `Nc1c[nH]c(=O)[nH]c1=O`, for which, under setting [8], the mutagenic call was “active; positive”. Turning to `CC(C)(O)C(Cl)(Cl)Cl`, the mutagenic call under setting [3] is “no conclusion”. On to `O=C(O)CSc1ccc2c3c(cccc13)C(=O)c1ccccc1-2`, for which the mutagenic call under setting [7] was “active; positive”.

With `Cc1c2ccccc2c(C)c2c1cc(O)c1ccccc12`, the mutagenic call (Species/Cell Type: Chinese hamster lung (V79) cells, Assay Type: Forward gene mutation at the HPRT or ouabain locus, Assay Code: V79-*, Activation: With metabolic activation, Evaluation Type: Evaluation A (Pre-1980)) is “inactive; negative”. For the same compound, the call (Species/Cell Type: Nonhuman, Assay Code: CCGT, Evaluation Type: Evaluation A (Pre-1980)) is given as “no conclusion”. On to `Cc1cccc2ccc3cc4ccccc4cc3c12`, for which the mutagenic call was “active; positive” under setting [9] and “active; positive” under setting [2]. For the compound `CC1=C[C@H]2[C@@]3(O)[C@H](C)[C@@H](O)[C@]4(O)[C@H]([C@@H]3C=C(CO)C[C@]2(O)C1=O)C4(C)C`, the mutagenic call runs as follows: (Species/Cell Type: Escherichia coli polA (W3119 vs P3478), Assay Type: Rec-assay, DNA effects (bacterial DNA repair), Assay Code: RE1T, Evaluation Type: Evaluation A (Pre-1980)) “no conclusion”; under setting [10], “inactive; negative”. For the compound `OCCc1ccccc1`, the mutagenic call reads like this: (Species/Cell Type: Human lymphocytes, Assay Type: Sister-chromatid exchange (SCE) in vitro, Assay Code: SCLT, Evaluation Type: Evaluation B (Post-1980)) “no conclusion”; (Species/Cell Type: Human, Assay Type: Sister-chromatid exchange (SCE) in vitro, Assay Code: SC1T, Evaluation Type: Evaluation B (Post-1980)) “no conclusion”. In the case of `CCCCC/C=C\C/C=C\C/C=C\CCCCC(=O)O`, the mutagenic call under setting [3] was “no conclusion”.

Consider `CC(=O)O/C=C/Cc1cccc2c1OCO2`, for which, under setting [11], the mutagenic call is given as “no conclusion”. Turning to `OC/C=C/c1ccc2c(c1)OCO2`, the mutagenic call under setting [11] was “no conclusion”. Turning to `NC(=S)c1ccccc1`, the mutagenic call under setting [4] is “active; positive”.

Regarding `NC[C@@H](O)CCl`, where the note is “Species/Cell Type: Rodents, Sex: Male, Assay Type: Dominant lethal test, Assay Code: DLT-, Evaluation Type: Evaluation A (Pre-1980)”, the mutagenic call is “inactive; negative”. Regarding `C1CC2OC2C2OC12` (stereo unspecified), where the note is “Species/Cell Type: Neurospora crassa, Assay Type: Forward gene mutation, Assay Code: NEF-, Evaluation Type: Evaluation A (Pre-1980)”, the mutagenic call was “inactive; negative”. With `Nc1cccc(N)c1`, the mutagenic call is “active; positive” under setting [8]; “no conclusion” (Species/Cell Type: Rodents, Sex: Male, Assay Type: Dominant lethal test, Assay Code: DLTT, Evaluation Type: Evaluation A (Pre-1980)); “active; positive” under setting [2]; “active; positive” (Species/Cell Type: Syrian hamster embryo (SHE) cells, Assay Type: Cell transformation, clonal assay, Assay Code: CTC+, Evaluation Type: Evaluation A (Pre-1980)). Turning to `COc1ccc2c3ccc(OC)cc3c3c4cc(OC)ccc4c4ccc(OC)cc4c3c2c1`, the mutagenic call under setting [2] is “active; positive”. For the compound `CCC(C)CCCC(=O)N[C@@H](CCN)C(=O)N[C@H](C(=O)N[C@@H](CCN)C(=O)N[C@H]1CCNC(=O)C([C@@H](C)O)NC(=O)[C@@H](CCN)NC(=O)[C@H](CCN)NC(=O)[C@@H](CC(C)C)NC(=O)[C@@H](CC(C)C)NC(=O)[C@H](CCN)NC1=O)[C@@H](C)O` (stereo partly drawn) ({Heptanoyl(5-Me)}-[Dab]T[Dab][Dab][Dab][dL][dL][Dab][dDab][ξThr(3R)]; lactam 4-C), the mutagenic call by setting is: (Species/Cell Type: Escherichia coli polA (W3119 vs P3478), Assay Type: Rec-assay, DNA effects (bacterial DNA repair), Assay Code: RE1-, Evaluation Type: Evaluation A (Pre-1980)) “inactive; negative”; (Species/Cell Type: Human lymphocytes, Assay Type: Sister-chromatid exchange (SCE) in vitro, Assay Code: SCL-, Evaluation Type: Evaluation B (Post-1980)) “inactive; negative”; (Species/Cell Type: Human, Assay Type: Sister-chromatid exchange (SCE) in vitro, Assay Code: SC1-, Evaluation Type: Evaluation B (Post-1980)) “inactive; negative”.

Regarding `BrCc1c2ccccc2cc2c1ccc1ccccc12`, the mutagenic call is “active; positive” (Species/Cell Type: Chinese hamster lung (V79) cells, Assay Type: Forward gene mutation at the HPRT or ouabain locus, Assay Code: V79+, Evaluation Type: Evaluation A (Pre-1980)); “active; positive” (Species/Cell Type: Drosophila melanogaster, Assay Type: Sex-linked recessive lethal gene mutation, Assay Code: SRL+, Evaluation Type: Evaluation A (Pre-1980)); “active; positive” (Species/Cell Type: Escherichia coli WP2, Assay Type: Tryptophan reverse gene mutation, Assay Code: WP2+D, Dose Response: With dose response, Evaluation Type: Evaluation A (Pre-1980)); “active; positive” (Species/Cell Type: Escherichia coli WP2 UVRA, Assay Type: Tryptophan reverse gene mutation, Assay Code: WPU+D, Dose Response: With dose response, Evaluation Type: Evaluation A (Pre-1980)); “active; positive” (Species/Cell Type: Human diploid fibroblasts, Assay Type: Unscheduled DNA synthesis (UDS) in vitro, DNA effects, Assay Code: UDH+, Evaluation Type: Evaluation A (Pre-1980)); “active; positive” under setting [13]. The mutagenic call (Species/Cell Type: Syrian hamster embryo (SHE) cells, Assay Type: Cell transformation, clonal assay, Assay Code: CTC-, Evaluation Type: Evaluation A (Pre-1980)) is “inactive; negative”. For the same compound, the call under setting [12] was “active; positive”. For the compound `O=C1c2ccccc2C(=O)c2c(NCCNCCO)ccc(NCCNCCO)c21`, the mutagenic call under setting [13] is “active; positive”. Take `Cc1ccc2cc3c(cc(O)c4ccccc43)c3c2c1CC3`: the mutagenic call (Species/Cell Type: Mouse prostate cells, Assay Type: Cell transformation, Assay Code: CTM+, Evaluation Type: Evaluation A (Pre-1980)) was “active; positive”.

Turning to `CCOC(=O)/C=C(C)/C=C/C=C(C)/C=C/c1c(C)cc(OC)c(C)c1C`, the mutagenic call is “active; positive” (Species/Cell Type: Human, Assay Type: Sister-chromatid exchange (SCE) in vitro, Assay Code: SC1+D, Dose Response: With dose response, Evaluation Type: Evaluation A (Pre-1980)); “no conclusion” under setting [3]; “no conclusion” under setting [6].

As for `ClC1=C(Cl)[C@]2(Cl)[C@H]3[C@H]([C@@H]4C=C[C@H]3C4)[C@@]1(Cl)C2(Cl)Cl`, the mutagenic call was “no conclusion” (Species/Cell Type: Drosophila melanogaster, Assay Type: Sex-linked recessive lethal gene mutation, Assay Code: SRLT, Evaluation Type: Evaluation A (Pre-1980)); “no conclusion” under setting [3]; “inactive; negative” under setting [10]; “inactive; negative” under setting [1]. Besides, the call (Species/Cell Type: Nonhuman, Assay Code: CCG+L, Evaluation Type: Evaluation A (Pre-1980)) was “active; positive”. As for `CC(=O)CCCCn1c(=O)c2c(ncn2C)n(C)c1=O`, for the setting “Species/Cell Type: Human, Sex: Male, Assay Type: Sperm morphology, Assay Code: SPHT, Evaluation Type: Evaluation A (Pre-1980)”, the mutagenic call was “no conclusion”.

In the case of `O=NN(CCO)CCO`, the mutagenic call under setting [3] is “no conclusion”. For the same compound, under setting [12], the call was “active; positive”. `[Cl][Sn]([Cl])([Cl])[Cl]`: the mutagenic call (Species/Cell Type: Bacillus subtilis (H17 vs M45), Assay Type: Rec-assay, spot test, DNA effects (bacterial DNA repair), Assay Code: REW-, Evaluation Type: Evaluation A (Pre-1980)) was “inactive; negative”.

Turning to `C=COCC(F)(F)F`, the mutagenic call is “active; positive” under setting [9]; “active; positive” under setting [2]; “inactive; negative” (Species/Cell Type: Salmonella typhimurium and Escherichia coli, Assay Type: Forward and reverse gene mutation, body fluid assay, Assay Code: BFB-, Evaluation Type: Evaluation A (Pre-1980)). `O=[N+]([O-])[O-].O=[N+]([O-])[O-].O=[N+]([O-])[O-].[Rh+3]`: under setting [5], the mutagenic call was “active; positive”. For the compound `CN(C)c1ccc(N=Nc2ccccc2C(=O)O)cc1`, the mutagenic call runs as follows: under setting [5], “active; positive”; under setting [11], “no conclusion”.

These data come from PubChem BioAssay AID1259408 (Genetic Toxicology Data Bank (GENE-TOX), 2018).
